Earlier results, collected in patent US8361760B2, “Microbial production of 3-hydroxyacids from glucose and glycolate” (Massachusetts Institute of Technology, priority 2009, dated 2013).

Tested on: CoA-transferase
Design: Relative activity: concentration or dose not given beside the values
Conditions: CoA-transferase activity with carboxylic acid added; for Relative activity: relative to None = 100; for Specific Activity: None = 34.1 units/mg

Row | Relative activity [%] | Specific Activity [units/mg] | SMILES
1 | 94 | 32.1 | O=C(O)/C=C/CC(=O)O [(E)-Glutaconate]
2 | 87 | 29.6 | O=C(O)CC[C@@H](O)C(=O)O [(R)-2-Hydroxyglutarate]
3 | 27 | 9.1 | C[C@@H](O)C(=O)O [(R)-Lactate]
4 | 46 | 15.8 | C[C@H](O)C(=O)O [(S)-Lactate]
5 | 96 | 32.8 | O=C(O)/C=C/C(=O)O [Fumarate]
6 | 20 | 6.8 | CCC(=O)O [Propionate]
7 | 87 | 29.6 | O=C(O)CCC(=O)O [Succinate]

Row | SMILES | Relative activity [%] | Specific Activity [units/mg]
8 | C=CC(=O)O [Acrylate] | 37 | 12.7
